Test results as given in US20140286906A1, “USE OF IGF-1 IN THE MODULATION OF TREG CELL ACTIVITY AND THE TREATMENT AND PREVENTION OF AUTOIMMUNE DISORDERS OR DISEASES” (priority 2011, published 2014).
Read-outs that look alike come from different tables or passages of the source.

What was measured:
[1] = system: CD4+CD25+ splenic cells; experiment: qRT-PCR and microarray gene expression in CD4 CD25 double positive splenic cells; type: cell-based, murine
Description: To further support the effect of IGF-1 on T regulatory function qRT-PCR analysis was performed on CD4 CD25 double positive splenic purified cells in the presence or absence of IGF-1 (FIG. 3). […] IL-10 is a cytokine with a potent anti-inflammatory activity that is produced, among others, by regulatory T cells (Mosser and Zhang, 2008) and its expression is not dependent on Foxp3 expression (Gavin et al., 2007). Foxp3 IL10 expressing cells mainly localize in the intestine and are important regulators of intestine homeostasis. For example, mice with conditional deletion of IL-10 develop spontaneous inflammation of the intestine (Roers et al., 2004). […] Additionally, IL-10 is also important for the maintenance of Foxp3 expression in vivo in mice with colitis (Murai et al., 2009). The inventors performed microarray analysis comparing IGF-1 treated and untreated Tregs. […] An example of these genes is granzyme B, which enables T regulatory cells to actively kill APCs and Teff cells in extreme conditions. These and other mechanisms are believed to lead in vivo to the resolution of the immune response (Tang and Bluestone, 2008). Thus, maintaining the suppressive function after cell expansion was a critical aspect regarding the use of IGF-1 for restoring the balance of effector and regulatory.

[2] = system: T effector cell proliferation; experiment: in vitro suppression of T effector cell proliferation by IGF-1 treated Tregs; type: cell-based; conditions: antigen presenting cells and soluble anti-CD3; Treg:Teff 1:2 to 1:64
[3] = mouse, in vivo
Description: The inventors first tested the ability of rhIGF-1 to alter the balance of Treg/CD4 positive cells after five intraperitoneal daily injections (5 μg, FIG. 11).

[4] = system: CD25+ splenic CD4+ cells; experiment: in vitro expansion of FACS-sorted splenic CD4+CD25+ cells; type: cell-based, murine; conditions: TCR stimulation with anti-CD3 and anti-CD28 antibodies
Description: In a preferred embodiment for expanding Treg cells in vitro/ex vivo, IGF-1 is added at a certain concentration (e.g. between 1 and 100 ng/ml) in a medium that allows for the cells to survive and grow (e.g. in mice, RPM1 1640 plus 10% fetal calf serum plus other additives including beta-mercaptoethanol, Sodium Pyruvate, Penicillin/Streptomycin, L-Glutamine or equivalent defined media). Additionally, T cells are stimulated with anti-CD3. The costimulatory agent is an antibody or ligand specific for a TCR costimulator, such as CD28 (like in example 1) or GITR, as described below.
In animal experiments, the population is isolated normally from murine spleen (but also could be isolated from other tissues, like for example but not restricted to bone marrow, adipose tissue, cord blood derived mononuclear cell, thymus, or peripheral blood) and is sorted using different markers (e.g., CD4 and CD25). This population is defined as CD4+CD25+ and includes the regulatory cells. This population is then treated in the above-mentioned medium in the presence of IGF-1. After several days of culture part of the cells are counted, fixed, permeabilized and analyzed by flow cytometry using an anti-FOXP3 antibody in combination with the same extracellular markers (CD4 and CD25). This allows for the determination of the absolute number of FOXP3 positive cells present in the culture. […]

[5] = system: DSS-induced colitis; experiment: DSS-induced colitis, systemic IGF-1 delivery; type: in vivo, mice
Excerpt: In this example the inventors examined the ability of IGF-1 to suppress inflammation in a mouse model for IBD (DSS-induced colitis, Wirtz et al, 2007). Mice ingested DSS for 7 days and developed an acute colitis. […] This difference in weight with respect to their respective control group was maintained during the duration of the IGF-1 treatment (FIG. 31).
Administration of DSS in several cycles results in chronic colitis (Wirtz et al., 2007). To also test if the protective effects of IGF-1 lasted beyond the IGF-1 treatment, mice were administered DSS for another cycle at day 37. […] To further confirm that the observed effects were a consequence of colonic inflammation the inventors performed a histochemical analysis of the colon (FIG. 33). DSS-treated mice presented enlargement of the muscle, mucosa and subepithelial layer and foci of infiltrating cell, the main mediators of inflammation. In contrast, DSS-colitis mice receiving IGF-1 during the initial phase of the treatment for a total of 28 days were protected and did no show this prolonged infiltration of leukocytes. Quantification of these histological parameters (FIG. 34) further confirmed the significant long-term protection in IGF-pretreated mice.

[6] = system: CD4+ cells isolated from mesenteric lymph nodes; experiment: intraperitoneal injection, RT-PCR of CD4+ cells from mesenteric lymph nodes; type: in vivo, mice; conditions: five intraperitoneal daily injections (5 μg); RT-PCR after the fifth day; n=30, P=0.0241
[7] = system: CD4+CD25- cells (T conventional cells); experiment: Annexin V / living dye apoptosis flow cytometry, CD4+CD25- cells; type: cell-based, murine
Excerpt: The effects of IGF-1 on apoptosis can be measured by flow cytometry. By using a combination of a living dye and Annexin V staining it is possible to determine four different cell populations which correspond to non-apoptotic, necrotic, early and late apoptosis.
(§1) Initially, and in order to characterize the in vitro effects of IGF-1 on the different populations of the […] immune system, murine splenic CD4 positive cells were sorted by FACS based on the expression of CD25. This allows for the separation and enrichment of conventional T cells (CD25 negative) and regulatory T cells (CD25 positive). […] To exclude the possibility that the observed expansion was due to the anti-apoptotic properties of IGF-1, the cells in culture were stained with AnnexinV (a marker of apoptosis) and a vital dye, and then analyzed by flow cytometry.

[8] = system: experimental autoimmune encephalomyelitis (EAE); conditions: cited from earlier work
[9] = system: CD25 negative subset (conventional T cells); experiment: in vitro expansion of FACS-sorted splenic CD4+CD25- cells; type: cell-based, murine; conditions: TCR stimulation with anti-CD3 and anti-CD28 antibodies
Excerpt: as §1

[10] = qRT-PCR, compared to non-treated cultures

In the case of Insulin-like growth factor-1 [IGF-1], the “granzyme B gene expression” value ([1]; microarray, IGF-1 treated versus untreated Tregs) is reported as “upregulated”, the “Foxp3 mRNA” value [1, 10] is reported as “upregulated from day 1” and the “IL-10 mRNA” value [1, 10] is reported as “upregulated but with delayed kinetics”. For the same substance, the “ability of Treg cells to suppress T effector cell proliferation after treatment” value [2] was “retain their ability to suppress T effector cell proliferation”, the “hIGF-1 in peripheral blood” value [3] was “Elevated levels” and the “increase of IGF-1 levels determined by ELISA” value [3] was 40 and 4. For the same substance, the “in vitro expansion of CD25 positive subset” value [4] was “consistently promoted the in vitro expansion”, the “histological signs of colitis, infiltration of leukocytes” value ([5]; IGF-1 for 28 days in initial phase, after re-challenge) was “protected” and the body weight loss ([5]; acute phase, DSS for 7 days) was “showed protection”. The “thickness of the subepithelial layer of the colon” value ([5]; after re-challenge, versus DSS-only mice, P=0.0004) was “significant reduction”, the “thickness of the mucosa of the colon” value ([5]; after re-challenge, versus DSS-only mice, P=0.0007) was “significant reduction” and the “thickness of the muscle layer of the colon” value ([5]; after re-challenge, versus DSS-only mice, P=0.053) was “significant reduction”. For the same substance, the “difference in weight with respect to control group” value ([5]; during the duration of the IGF-1 treatment) was “maintained”, the “body weight loss after DSS re-challenge” value ([5]; second DSS cycle at day 37, no rhIGF-1 delivered in this period) was “complete protection” and the “expression of Foxp3 in CD4+ cells from mesenteric lymph nodes” value [6] was “increased expression”. The protection from apoptosis [7] was “partially protected from apoptosis”, the “course of EAE” value ([8]; 10 mg/kg per day given after disease onset (Lovett-Racke et al.)) was “did not significantly alter the course of disease” and the “course of EAE” value ([8]; 10 mg/kg per day given before disease onset (Lovett-Racke et al.)) was “mild protection”. The “clinical course of EAE” value ([8]; administration during the acute phase (Cannella et al.)) was “some transient clinical amelioration”, the “clinical course of EAE” value ([8]; chronic phase (Cannella et al.)) was “no effect” and the “in vitro expansion of CD25 negative subset” value [9] was “no reproducible effect”.
